From ChEMBL document CHEMBL4627389, “Constituents of Two Dioscorea Species That Potentiate Antibiotic Activity against MRSA” (2020)
Active and inactive are the calls of the source. The calls are words filed in the database; no cut-off is given here.

What was measured:
Staphylococcus aureus [1] = experiment: Potentiation of norfloxacin-induced antibacterial activity against Staphylococcus aureus 1199B assessed as norfloxacin MIC at 100 mg/L by broth dilution assay (reference value: 32 mg/L); assay type: functional
Staphylococcus aureus [2] = experiment: Potentiation of […] antibacterial activity against Staphylococcus aureus XU212 assessed as fold reduction in tetracycline MIC at 100 mg/L by broth dilution assay relative to tetracycline alone; assay type: functional
Staphylococcus aureus [3] = experiment: Potentiation of norfloxacin-induced antibacterial activity against Staphylococcus aureus 1199B assessed as fold reduction in norfloxacin MIC at 100 mg/L by broth dilution assay relative to norfloxacin alone; assay type: functional
Staphylococcus aureus [4] = experiment: Potentiation of […] antibacterial activity against Staphylococcus aureus XU212 assessed as tetracycline MIC at 100 mg/L by broth dilution assay (reference value: […]); assay type: functional
Staphylococcus aureus [5] = experiment: Antibacterial activity against Staphylococcus aureus 1199B assessed as inhibition of efflux pump by measuring increase in intracellular accumulation of ethidium bromide at 0.25 times of MIC after 30 mins by fluorescence assay; assay type: functional, organism-based
Staphylococcus aureus [6] = experiment: Potentiation of norfloxacin-induced antibacterial activity against Staphylococcus aureus 1199B assessed as fold reduction in norfloxacin MIC at 20 mg/L by broth dilution assay relative to norfloxacin alone; assay type: functional
Staphylococcus aureus [7] = experiment: Antibacterial activity against Staphylococcus aureus 1199B assessed as inhibition of efflux pump by measuring increase in intracellular accumulation of ethidium bromide after 30 mins by fluorescence assay; assay type: functional, organism-based
Staphylococcus aureus [8] = experiment: Potentiation of […] antibacterial activity against Staphylococcus aureus XU212 assessed as tetracycline MIC at 20 mg/L by broth dilution assay (reference value: […]); assay type: functional
Staphylococcus aureus [9] = experiment: Potentiation of norfloxacin-induced antibacterial activity against Staphylococcus aureus 1199B assessed as norfloxacin MIC at 20 mg/L by broth dilution assay (reference value: 32 mg/L); assay type: functional
Staphylococcus aureus [10] = experiment: Potentiation of […] antibacterial activity against Staphylococcus aureus XU212 assessed as fold reduction in tetracycline MIC at 20 mg/L by broth dilution assay relative to tetracycline alone; assay type: functional
Staphylococcus aureus [11] = experiment: Potentiation of […] antibacterial activity against Staphylococcus aureus XU212 assessed as fold reduction in tetracycline MIC at 64 mg/L by broth dilution assay relative to tetracycline alone; assay type: functional
Staphylococcus aureus [12] = experiment: Potentiation of […] antibacterial activity against Staphylococcus aureus XU212 assessed as tetracycline MIC at 64 mg/L by broth dilution assay (reference value: […]); assay type: functional
Staphylococcus aureus [13] = experiment: Potentiation of norfloxacin-induced antibacterial activity against Staphylococcus aureus 1199B assessed as fold reduction in norfloxacin MIC at 64 mg/L by broth dilution assay relative to norfloxacin alone; assay type: functional
Staphylococcus aureus [14] = experiment: Potentiation of norfloxacin-induced antibacterial activity against Staphylococcus aureus 1199B assessed as norfloxacin MIC at 64 mg/L by broth dilution assay (reference value: 32 mg/L); assay type: functional
Staphylococcus aureus [15] = experiment: Potentiation of norfloxacin-induced antibacterial activity against Staphylococcus aureus 1199B assessed as norfloxacin MIC at 30 mg/L by broth dilution assay (reference value: 32 mg/L); assay type: functional
Staphylococcus aureus [16] = experiment: Potentiation of […] antibacterial activity against Staphylococcus aureus XU212 assessed as tetracycline MIC at 30 mg/L by broth dilution assay (reference value: […]); assay type: functional
Staphylococcus aureus [17] = experiment: Potentiation of norfloxacin-induced antibacterial activity against Staphylococcus aureus 1199B assessed as fold reduction in norfloxacin MIC at 30 mg/L by broth dilution assay relative to norfloxacin alone; assay type: functional

COc1ccc(/C=C/C(=O)OCCCCCCCCCCCCCCCCCCCCCCCCCCCCCCCC(=O)O)cc1O
MIC (Staphylococcus aureus [1]): 4 µg/mL | fold change (FC) (Staphylococcus aureus [2]): 16 | fold change (FC) (Staphylococcus aureus [3]): 8 | MIC (Staphylococcus aureus [4]): 8 µg/mL

COC(=O)[C@H]1[C@H]2C[C@@H]3c4[nH]c5cc(OC)ccc5c4CCN3C[C@H]2C[C@@H](OC(=O)c2cc(OC)c(OC)c(OC)c2)[C@@H]1OC [RESERPINE]
inhibition (Staphylococcus aureus [5]): Active | fold change (FC) (Staphylococcus aureus [6]): 2 | inhibition (Staphylococcus aureus [7]): Dose-dependent effect | MIC (Staphylococcus aureus [8]): 64 µg/mL | MIC (Staphylococcus aureus [9]): 16 µg/mL | fold change (FC) (Staphylococcus aureus [10]): 2

COc1cc(CCc2ccccc2O)cc(O)c1OC
inhibition (Staphylococcus aureus [5]): Active | fold change (FC) (Staphylococcus aureus [11]): 2 | MIC (Staphylococcus aureus [12]): 64 µg/mL | fold change (FC) (Staphylococcus aureus [13]): 16 | MIC (Staphylococcus aureus [14]): 2 µg/mL

COc1cc(CCC(=O)CC(O)CC(=O)CCc2ccc(O)c(OC)c2)ccc1O
inhibition (Staphylococcus aureus [5]): Active | MIC (Staphylococcus aureus [15]): 8 µg/mL | MIC (Staphylococcus aureus [16]): 128 µg/mL | fold change (FC) (Staphylococcus aureus [17]): 4

COc1cc(CCC(=O)C[C@H](O)CC(=O)CCc2ccc(O)cc2)ccc1O
MIC (Staphylococcus aureus [1]): 16 µg/mL | fold change (FC) (Staphylococcus aureus [2]): 512 | fold change (FC) (Staphylococcus aureus [3]): 2 | MIC (Staphylococcus aureus [4]): < 0.25 µg/mL
